Measurements as given in patent US20220017489A1, “SOLID DISPERSIONS FOR TREATMENT OF CANCER” (Celgene Corporation, priority 2018, published 2022).
Converted amounts (≈) assume the structure as drawn. Read-outs that look alike come from different tables or passages of the source.

How the values were obtained:
[1] = Solubility determination of amorphous solid dispersions of Compound 1A in water, SIF and SGF at 37° C.; format: physicochemical
Experimental: For the solubility determination, suspensions of Compound 1A and dispersions were prepared in 3 mL aqueous medium. […] Samples were taken after 0.5, 1 and 2 hours, filtered over a PTFE spin filter and the concentration of Enasidenib in solution was determined by HPLC analysis. In the next sections the solubility results are discussed per aqueous media.
The concentration of API in solution was determined by HPLC analysis after 0.5, 1 and 2 hours.

[2] = Anti-precipitant screening of Compound 1A by solvent shift method in SIF; format: physicochemical; conditions: control experiment, crystalline solid, no polymer
Experimental: The anti-precipitant screen by the solvent shift method was used for discovering polymers that can maintain the supersaturated state of Compound 1A in solution. Based on the results of this screen, polymers were selected for the development of the ASD.
The concentration of free base in solution was determined by HPLC analysis.

[3] = Quantitative (24-hour shake flask) thermodynamic solubility of Compound 1A in organic solvents and water; format: physicochemical; conditions: room temperature
Experimental: The solubility of Compound 1A was quantitatively assessed in 10 different organic solvents and water. Slurries were prepared by mixing 30 mg of Compound 1A with an appropriate solvent volume. A stirring bean was added and the suspensions were stirring (500 rpm) at room temperature for 24 hours. An aliquot of the suspension was transferred into a spin filter (nylon, 0.2 μm). The solubility of the filtered solution was determined by HPLC.

physchem = conditions: thermodynamic from solid
[4] = Kinetic solubility of Compound 1A in SIF and SGF (DMSO solutions added to medium); format: physicochemical; conditions: 80 μL of 60, 30, 15 and 5 mg/mL DMSO solutions added to 4 mL
Experimental: Prior to the solvent shift experiments, the kinetic solubility of Compound 1A was tested in simulated intestinal fluid (SIF) and simulated gastric fluid (SGF) in order to choose the Compound 1A concentration suitable for the solvent shift experiments. Four different Compound 1A solutions (in DMSO) were prepared with concentrations of 60, 30, 15 and 5 mg/mL. Subsequently, 80 μL of these solutions were added to 4 mL of SGF and to 4 mL of SIF.
For the solvent shift experiments in SIF, Compound 1A concentration in DMSO of 5 mg/mL was used.

[5] = 37° C.
[6] = Amorphous solid dispersion screen for Compound 1A: HT-XRPD after accelerated aging conditions (40° C./70% RH, 4 weeks); format: physicochemical; conditions: HT-XRPD form after accelerated aging conditions, 4 weeks at 40° C. and 70% RH
Experimental: The plates were mounted on a Bruker General Area Detector Diffraction System (GADDS) equipped with a VÅNTEC-500 gas area detector corrected for intensity and geometric variations. The calibration of the measurement accuracy (peaks position) was performed using NIST SRM1976 standard (Corundum).
No background subtraction or curve smoothing was applied to the XRPD patterns.

[7] = thermodynamic from solid, Water

CC(C)(O)CNc1nc(Nc2ccnc(C(F)(F)F)c2)nc(-c2cccc(C(F)(F)F)n2)n1 [Compound 1A, 2-methyl-1-[(4-[6-(trifluoromethyl)pyridin-2-yl]-6-{[2-(trifluoromethyl)pyridin-4-yl]amino}-1,3,5-triazin-2-yl)amino]propan-2-ol]
Concentration API ([1]; SGF, 0.5 hours): ~80000 ng/mL
Concentration API ([1]; SGF, 0.5 hours, listed as SM): 75800 ng/mL
Concentration API ([1]; SGF, 1 hour): 41300 ng/mL
Concentration API ([1]; SGF, 2 hours): about 20 μg/mL
Concentration API ([1]; SGF, 2 hours, listed as SM): 19400 ng/mL
Concentration API ([1]; SIF, 0.5 hours): 300 ng/mL
Concentration API ([1]; SIF, 1 hour): <100 ng/mL
Concentration API ([1]; SIF, 2 hours): <100 ng/mL
Concentration API ([1]; Water, 0.5 hours, listed as SM): 1000 ng/mL
Concentration API ([1]; Water, 1 hour): 400 ng/mL
Concentration API ([1]; Water, 2 hours): <100 ng/mL
solubility [1, 7]: ~1 µg/mL (≈ 0.00211 mM)
Solubility of crystalline Compound 1A in SIF [2]: practically insoluble
solubility ([3]; Water): practically insoluble
solubility at 24 h ([3]; organic solvent or mixture, thermodynamic from solid, 1,4-Dioxane): 69200 µg/mL (≈ 146 mM)
solubility at 24 h ([3]; organic solvent or mixture, thermodynamic from solid, 2-Propanol): 229000 µg/mL (≈ 484 mM)
solubility at 24 h ([3]; organic solvent or mixture, thermodynamic from solid, Acetone): 209000 µg/mL (≈ 442 mM)
solubility at 24 h ([3]; organic solvent or mixture, thermodynamic from solid, Acetonitrile): 14700 µg/mL (≈ 31.1 mM)
solubility at 24 h ([3]; organic solvent or mixture, thermodynamic from solid, Chloroform): 70600 µg/mL (≈ 149 mM)
solubility at 24 h ([3]; organic solvent or mixture, thermodynamic from solid, Ethanol): > 408000 µg/mL
solubility at 24 h ([3]; organic solvent or mixture, thermodynamic from solid, Ethyl acetate): 127000 µg/mL (≈ 268 mM)
solubility at 24 h ([3]; organic solvent or mixture, thermodynamic from solid, Methanol): > 463000 µg/mL
solubility at 24 h ([3]; organic solvent or mixture, thermodynamic from solid, Tetrahydrofuran): > 429000 µg/mL
solubility at 24 h [3, 7]: < 100 µg/mL
solubility at 24 h (physchem; 1,4-dioxane, organic solvent or mixture): 400 µg/mL (≈ 0.845 mM)
solubility at 24 h (physchem; 2-propanol, organic solvent or mixture): 1400 µg/mL (≈ 2.96 mM)
solubility at 24 h (physchem; acetone, organic solvent or mixture): 900 µg/mL (≈ 1.9 mM)
solubility at 24 h (physchem; acetonitrile, organic solvent or mixture): 500 µg/mL (≈ 1.06 mM)
solubility at 24 h (physchem; chloroform, organic solvent or mixture): 200 µg/mL (≈ 0.422 mM)
solubility at 24 h (physchem; ethanol, organic solvent or mixture): 7300 µg/mL (≈ 15.4 mM)
solubility at 24 h (physchem; ethyl acetate, organic solvent or mixture): 200 µg/mL (≈ 0.422 mM)
solubility at 24 h (physchem; methanol, organic solvent or mixture): 35600 µg/mL (≈ 75.2 mM)
solubility at 24 h (physchem; tetrahydrofuran, organic solvent or mixture): 1800 µg/mL (≈ 3.8 mM)
solubility at 24 h (physchem; water): < 100 µg/mL
Kinetic solubility (precipitation) ([4]; SGF): precipitation was observed when using the solution with the highest concentration
Kinetic solubility (precipitation) ([4]; SIF): precipitated using all four concentrations
Concentration API (μg/mL) 0.5 h ([5]; SGF): 21.9 µg/mL
pH 0.5 h ([5]; SGF): 1.24
Concentration API (μg/mL) 1 h ([5]; SGF): 17.2 µg/mL
Concentration API (μg/mL) 2 h ([5]; SGF): 14.6 µg/mL
pH 2 h ([5]; SGF): 1.23
Concentration API (μg/mL) 0.5 h ([5]; SIF): 0.4 µg/mL
pH 0.5 h ([5]; SIF): 6.60
Concentration API (μg/mL) 1 h ([5]; SIF): <0.1 µg/mL
Concentration API (μg/mL) 2 h ([5]; SIF): <0.1 µg/mL
pH 2 h ([5]; SIF): 6.44
Concentration API (μg/mL) 0.5 h ([5]; Water): 0.7 µg/mL
pH 0.5 h ([5]; Water): 2.64
Concentration API (μg/mL) 1 h ([5]; Water): 0.4 µg/mL
Concentration API (μg/mL) 2 h ([5]; Water): 0.3 µg/mL
pH 2 h ([5]; Water): 2.15

CC(C)(O)CNc1nc(Nc2ccnc(C(F)(F)F)c2)nc(-c2cccc(C(F)(F)F)n2)n1 [ASD102]
Concentration API ([1]; SGF, 0.5 hours): 20800 ng/mL
Concentration API ([1]; SGF, 1 hour): 13000 ng/mL
Concentration API ([1]; SGF, 2 hours): 10900 ng/mL
Concentration API ([1]; SIF, 0.5 hours): <100 ng/mL
Concentration API ([1]; SIF, 1 hour): <100 ng/mL
Concentration API ([1]; SIF, 2 hours): <100 ng/mL
Concentration API ([1]; Water, 0.5 hours): <100 ng/mL
Concentration API ([1]; Water, 1 hour): <100 ng/mL
Concentration API ([1]; Water, 2 hours): <100 ng/mL
XRPD AAC [6]: Form 1
